Test results published in US20130040935A1, “CYCLIC KETO-ENOLS FOR THERAPY” (BAYER INTELLECTUAL PROPERTY GMBH, priority 2010, published 2013).
Where two headings read alike, the source gives them in different places.

How the values were obtained:
[1] = target: ACCase enzyme extracted from oat seedlings (Avena sativa, UniProt A0ACD5YD93); assay: Non-human ACCase assay (malachite green phosphate detection); assay type: biochemical; conditions: comparative compounds, Table V.2; read-out: ACC-non human IC50
Experimental: The assay was carried out at room temperature in a transparent 384-well microtitre plate. It determined the inorganic phosphate released from the ATP in the ACCase reaction.
The test mixture contained 50 mM Tris-HCl pH 8.3, 50 mM KCl, 2.5 mM MgCl2, 0.5 mM ATP, 0.8 mM dithiothreitol (DTT), 30 mM NaHCO3, 0.1 mM acetyl-CoA, 0.04% bovine serum albumin and 0.4 μg partially purified ACCase enzyme in a final volume of 40 μl. After 45 minutes of incubation, the reaction was stopped with 150 μl of malachite green solution, and the absorption at […] was read after 30 minutes.
The malachite green (MG) solution was prepared by mixing 3 parts of 0.6 mM MG-HCl solution in distilled water with 1 part of 8.5 mM ammonium molybdate in 4 M HCl. The solution was allowed to stand for 30 minutes. After filtration through a 0.45 μm polytetrafluoroethylene (PTFE) filter, 0.1 part of Triton X-100 (1.5%) in distilled water was added.
ACCase enzyme was extracted from oat seedlings 9 days after sowing and partially purified by precipitation with 0-40% ammonium sulphate followed by ion exchange chromatography on Q-Sepharose.

MCF7 = assay: Cell proliferation assay (CellTiter-Glo, 96 h), MCF7; assay type: cell-based; conditions: Homo sapiens
How it was run: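 Cells seeded 2000-5000/well, treated next day and incubated 96 h at 37° C; viability by CellTiter-Glo luminescence. t=0 luminescence subtracted from 96 h values for treated and untreated wells; percent growth inhibition derived relative to controls.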

MDA-MB-436 = assay: Cell proliferation assay (CellTiter-Glo, 96 h), MDA-MB-436; assay type: cell-based; conditions: Homo sapiens
Experimental: (§1) In accordance with the invention, the substances were tested in cell-based assays for the ability of the substances of inhibiting tumour cell proliferation after a 96-hour incubation with the substance. Cell viability was tested using the CellTiter-Glo® luminescent cell viability assay (Promega). The cells were sown at a density of 2000-5000 cells/well (depending on the cell line) in 100 μl growth medium on 96-well microtitre plates. For each cell line examined, cells were sown on a separate plate to determine the luminescence at t=0 hours and t=96 hours. After overnight incubation at 37° C., the luminescence values for the t=0 samples were determined. The dose plates for the t=96 hours points in time were treated with substances diluted with growth medium. The cells were then incubated at 37° C. for 96 hours, and the luminescence values for the t=96 hours sample were then determined. For data analysis, the t=0 values were subtracted from the t=96 hour values for treated and untreated samples. The differences in luminescence in percent between substance-treated samples and control values were used to determine the growth inhibition in percent.
(§2) The substances were tested in the following cell lines which represent the stated indications in an exemplary manner: […]

[2] = system: malonyl-CoA in a tumour (human MCF-7 breast cancer cells); assay: Mode-of-action experiment: intratumour malonyl-CoA in MCF-7 tumours after oral administration; assay type: in vivo, female nude mice (NMRI-nude (nu/nu)); conditions: Mus musculus, after 7 h
Experimental: Mode-of-Action Experiment
Prior to the determination of the activity in the MCF-7 model, some of the test substances were examined in a “mode of action” experiment. The principle of this experiment is that short-term application of a test substance capable of inhibiting ACC1 and/or ACC2 in a living organism after oral administration reduces malonyl-CoA in a tumour. To this end, in the experiment 2 million human MCF-7 breast cancer cells were injected subcutaneously into female nude mice (NMRI-nude (nu/nu) mice, Taconic M&B A/S, 1 day beforehand administration of a pellet for the release of oestrogen over a period of at least 60 days). Once the tumour extended to an area of about 60-70 mm^2, the test substance was administered orally over a period of 1-3 days, and at defined points in time the intratumour content of malonyl-CoA was then determined and compared to the vehicle control. The method is described in Anal Chem 2008 Aug. 1; 80(15):5736-42. Epub 2008 Jul. 9.).

Miapaca = assay: Cell proliferation assay (CellTiter-Glo, 96 h), Miapaca; assay type: cell-based; conditions: Homo sapiens, MIA PaCa-2
Experimental: as §1, §2

[3] = target: T1, human ACC1 (acetyl-coenzyme A carboxylase alpha transcript variant 1) (Homo sapiens, UniProt Q13085); assay: Human ACC1 enzyme assay, Assay B1 (ADP-Glo); assay type: biochemical
T1 construct: FLAG (C); made in house; host or cells: baculovirus-infected insect cells (Hi5)
Experimental: Essentially, the enzyme activity is measured by quantifying the adenosine diphosphate (ADP) formed as a byproduct of the enzyme reactions using the ADP-Glo™ detection system from Promega. In this test, initially the adenosine triphosphate (ATP) not consumed in the enzyme reaction is converted quantitatively with an adenylate cyclase (“ADP-GLO reagent”) into cAMP, the adenylate cyclase is then stopped and (“kinase detection reagent”) the ADP formed is subsequently converted into ATP, which is converted in a luciferase-based reaction into a glow luminescence signal.
The concentration of the hACC1 was adapted to the respective activity of the enzyme and adjusted such that the assay operated in the linear range. […] The amount of light emitted was taken as a measure for the amount of ADP formed and thus for the enzyme activity of the hACC1.

MDA-MB-468 = assay: Cell proliferation assay (CellTiter-Glo, 96 h), MDA-MB-468; assay type: cell-based; conditions: Homo sapiens
Experimental: as §1, §2

[4] = target: human ACC2 (acetyl-coenzyme A carboxylase 2) (Homo sapiens, UniProt O00763); assay: Human ACC2 enzyme assay, Assay B2 (ADP-Glo);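 also: human ACC2 activity read as ADP product, detected by luciferase glow luminescence after residual ATP removal, enzyme near 2 ng/µl in linear range, detection steps at 22 °C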
HCC-1937 = assay: Cell proliferation assay (CellTiter-Glo, 96 h), HCC-1937; assay type: cell-based; conditions: Homo sapiens, HCC1937
Experimental: as §1, §2

A431 = assay: Cell proliferation assay (CellTiter-Glo, 96 h), A431; assay type: cell-based; conditions: Homo sapiens, A-431; 96-hour incubation
Experimental: as §1, §2

Du145 = assay: Cell proliferation assay (CellTiter-Glo, 96 h), Du145; assay type: cell-based; conditions: Homo sapiens, DU-145; 96-hour incubation
Experimental: as §1, §2

[5] = target: acetyl-CoA carboxylase 2 (ACC2) (Homo sapiens, UniProt O00763); assay: Human ACC2 enzyme assay, Assay A2 (HTRF ADP immunoassay);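 also: ADP generated by ACC2 quantified via competitive time-resolved FRET between europium cryptate anti-ADP antibody and d2-tagged ADP, enzyme kept in linear range near 0.6 ng/µl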
KM12 = assay: Cell proliferation assay (CellTiter-Glo, 96 h), KM12; assay type: cell-based; conditions: Homo sapiens, 96-hour incubation
Experimental: as §1, §2

recombinant human ACC1 = recombinant human ACC1 (Homo sapiens, UniProt Q13085); assay: Human ACC1 enzyme assay, Assay A1 (HTRF ADP immunoassay);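 also: ADP generated by the enzyme quantified via competitive time-resolved FRET, read as europium cryptate to d2 energy transfer after 1 h at 22 °C with labelled ADP tracer and anti-ADP antibody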
PC3 = assay: Cell proliferation assay (CellTiter-Glo, 96 h), PC3; assay type: cell-based; conditions: Homo sapiens, PC-3; 96-hour incubation
Experimental: as §1, §2

ECC1 = assay: Cell proliferation assay (CellTiter-Glo, 96 h), ECC1; assay type: cell-based; conditions: Homo sapiens, ECC-1; 96-hour incubation
Experimental: as §1, §2

HEC1A = assay: Cell proliferation assay (CellTiter-Glo, 96 h), HEC1A; assay type: cell-based; conditions: Homo sapiens, HEC-1-A; 96-hour incubation
Experimental: as §1, §2

[6] = In-vitro dissolution of the pharmaceutical formulation (USP apparatus 2, paddle method); assay type: physicochemical; conditions: pH 1 and pH 6.8 (reason for adding SDS)
Experimental: c) In-Vitro Dissolution of the Pharmaceutical Formulation […] The release test was in each case carried out in 900 ml of various media at 37° C. and with a stirrer speed of 75 rotations per minute (FIG. 2). Each determination was carried out in three replications. The content was determined by HPLC.

[7] = MCF7, Table 7, 96-hour incubation
[8] = Assay B1, read-out: ACC 1 (=B1) IC50

Compound | IC50 (MCF7; [7]) | IC50 (MDA-MB-436; MDA-MB-436, 96-hour incubation) | inhibition in vivo at 10 mg/kg ([2]; MCF7, po, 10 mg/kg, vs Vehicle) | IC50 (Miapaca; 96-hour incubation) | IC50 [3] | IC50 (MDA-MB-468; MDA-MB-468, 96-hour incubation) | IC50 [4] | IC50 (HCC-1937; 96-hour incubation) | IC50 [3, 8] | other results
CCc1cc(-c2ccccc2)cc(Cl)c1C1C(=O)N2CCOCCN2C1=O [V-1] |  |  |  |  |  |  |  |  |  | IC50 [1]: 0.5 nM
Cc1ccc(-c2ccc(Cl)cc2)cc1C1=C(O)C2(CCOCC2)NC1=O [1-6, 3-(4′-chloro-4-methylbiphenyl-3-yl)-4-hydroxy-8-oxa-1-azaspiro[4.5]dec-3-en-2-one] | 209 nM | 313 nM | 68% | 1250 nM | 133 nM | 555 nM | 9340 nM | 873 nM |  | 
COCC1CCC2(CC1)NC(=O)C(c1cc(-c3ccc(Cl)cc3)ccc1C)=C2O (stereo not shown) [1-56, 3-(4′-chloro-4-methylbiphenyl-3-yl)-4-hydroxy-8-(methoxymethyl)-1-azaspiro[4.5]dec-3-en-2-one] | 30 nM | 84 nM | 84% | 316 nM |  | 138 nM | 672 nM | 171 nM | 202 nM | IC50 (A431): 214 nM
Cc1ccc(-c2ccc(F)c(F)c2)cc1C1=C(O)[C@]2(CC[C@H](C(F)(F)F)CC2)NC1=O [1-128, (5s,8s)-3-(3′,4′-Difluoro-4-methylbiphenyl-3-yl)-4-hydroxy-8-(trifluoromethyl)-1-azaspiro[4.5]dec-3-en-2-one] | 33 nM |  |  |  |  |  | 4410 nM |  | 157 nM | IC50 (Du145): 29 nM; IC50 [5]: 2740 nM; IC50 (KM12): 74 nM; IC50 (recombinant human ACC1): 195 nM; IC50 (PC3): 20 nM; IC50 (ECC1): 137 nM; IC50 (HEC1A): 328 nM
COC1CCC2(CC1)NC(=O)C(c1c(C)cc(-c3ccc(Cl)cc3)cc1C)=C2O (stereo not shown) [V-2] |  |  |  |  |  |  |  |  |  | IC50 [1]: 40 nM
CO[C@H]1CC[C@]2(CC1)NC(=O)C(c1cc(-c3ccc(Cl)c(F)c3)ccc1C)=C2O [1-118, (5s,8s)-3-(4′-Chloro-3′-fluoro-4-methylbiphenyl-3-yl)-4-hydroxy-8-methoxy-1-azaspiro[4.5]dec-3-en-2-one] | 37 nM |  |  |  |  |  | 1380 nM |  | 102 nM | IC50 (Du145): 39 nM; IC50 [5]: 690 nM; IC50 (KM12): 275 nM; IC50 (recombinant human ACC1): 129 nM; IC50 (PC3): 25 nM; IC50 (ECC1): 221 nM; solubility in dissolution media [6]: insufficient solubility; IC50 (HEC1A): 1760 nM
Cc1cc(C)c(-c2ccc(Cl)cc2)cc1C1=C(O)[C@]2(CC[C@@]3(CCCO3)CC2)OC1=O [2-30, (5r,8s)-3-(4′-chloro-4,6-dimethylbiphenyl-3-yl)-4-hydroxy-1,9-dioxadispiro[4.2.4.2]tetradec-3-en-2-one] |  |  |  |  | 696 nM |  | 243 nM |  |  | IC50 (MCF7; MCF7 cells): 64 nM; IC50 (MDA-MB-436; MDA-MB-436 cells): 115 nM; inhibition in vivo at 10 mg/kg ([2]; MCF7, 10 mg/kg oral, MCF-7 tumour in nude mice, vs vehicle): 36%; IC50 (Miapaca; MiaPaca cells): 255 nM; IC50 (MDA-MB-468; MDA-MB-468 cells): 153 nM; IC50 (HCC-1937; HCC-1937 cells): 1500 nM
Cc1ccc(-c2ccc(Cl)cc2)cc1C1=C(O)C2(CCC(OCC(F)(F)F)CC2)NC1=O (stereo not shown) [1-33, 3-(4′-chloro-4-methylbiphenyl-3-yl)-4-hydroxy-8-(2,2,2-trifluoroethoxy)-1-azaspiro[4.5]dec-3-en-2-one] | 27 nM | 70 nM | 88% | 193 nM |  | 74 nM | 2010 nM | 108 nM | 234 nM | 
COC1CCC2(CC1)NC(=O)C(c1c(C)cc(OC(F)(F)F)cc1Cl)=C2O (stereo not shown) [V-3] |  |  |  |  |  |  |  |  |  | IC50 [1]: 2 nM
Cc1ccc(-c2ccc(Cl)cc2)c(C)c1C1=C(O)C2(CCOCC2)NC1=O [1-1, 3-(4′-chloro-2,4-dimethylbiphenyl-3-yl)-4-hydroxy-8-oxa-1-azaspiro[4.5]dec-3-en-2-one] | 800 nM | 140 nM | 39% | 827 nM | 245 nM | 274 nM | > 20000 nM | 1080 nM |  | 
O=C1N[C@]2(CC[C@@H](OCC(F)(F)F)CC2)C(O)=C1c1cc(-c2ccc(Cl)cc2)ccc1Cl [1-29, (5s,8s)-3-(4,4′-dichlorobiphenyl-3-yl)-4-hydroxy-8-(2,2,2-trifluoroethoxy)-1-azaspiro[4.5]dec-3-en-2-one] | 32 nM |  | 93% |  | 153 nM |  | 2620 nM |  |  | IC50 (KM12): 132 nM
